Literature values in PubChem BioAssay AID1259409 (Chemical Carcinogenesis Research Information System (CCRIS), 2018).

System: rodent chemically induced tumor inhibition, incidence and multiplicity
Assay: CCRIS tumor inhibitor studies

SMILES: Oc1cc(O)c2c(c1)O[C@H](c1ccc(O)c(O)c1)[C@@H](O)C2
- tumour outcome (control, treated, inhibition, significance) (Carcinogen: 1,2-DIMETHYLHYDRAZINE [540-73-6], Species: RAT, Strain/Sex: WISTAR, Target Tissue: Type of Lesion: COLON, Dose [Carcinogen]: 20 MG/KG): 81.3%, 58.8%, 27.7%, p<0.05
- tumour outcome (control, treated, inhibition, significance) (Carcinogen: 7,12-DIMETHYLBENZ[A]ANTHRACENE, 57-97-6, Dose [Inhibitor]: 0, 0.2 ML OF A 1% SOLUTION 1/D FOR 2 WK APPLIED 5 MIN POST EACH CARCINOGEN DOSE THEN 1/D FOR 4 WK DURING PROMOTION STAGE, Route [Inhibitor]: DERMAL, Species: MOUSE, Strain/Sex: SWISS/MALE, Target Tissue: Type of Lesion: SKIN: PAPILLOMA, Dose [Carcinogen]: 0.2 ML OF A 0.24% SOLUTION IN DMSO 1/D FOR 2 WK, Promoter: CROTON OIL, 8001-28-3): 23/23 (100%), 16/23 (70%), 30%, not calculated
- tumour outcome (control, treated, inhibition, significance) (Carcinogen: 7,12-DIMETHYLBENZ[A]ANTHRACENE, 57-97-6, Dose [Inhibitor]: 0, 0.2 ML OF A 1% SOLUTION 1/D FOR 2 WK APPLIED 5 MIN PRIOR TO EACH CARCINOGEN DOSE (STUDY DURATION: 20 WK), Route [Inhibitor]: DERMAL, Species: MOUSE, Strain/Sex: SWISS/MALE, Target Tissue: Type of Lesion: SKIN: PAPILLOMA, Dose [Carcinogen]: 0.2 ML OF A 0.24% SOLUTION IN DMSO 1/D FOR 2 WK, Promoter: CROTON OIL, 8001-28-3): 23/23 (100%), 20/23 (87%), 13%, not calculated
- tumour outcome (control, treated, inhibition, significance) (Carcinogen: 7,12-DIMETHYLBENZ[A]ANTHRACENE, 57-97-6, Dose [Inhibitor]: 0, 2.5 MG/D IN DRINKING WATER FOR DURATION OF STUDY BEGINNING 2 WK PRIOR TO CARCINOGEN DOSE (STUDY DURATION: 6 MO), Route [Inhibitor]: ORAL, Species: RAT, Strain/Sex: WISTAR/FEMALE, Target Tissue: Type of Lesion: MAMMARY GLAND: TUMOR, Dose [Carcinogen]: 10 MG IN PEANUT OIL INJECTED INTO SUBCUTANEOUS POUCH CREATED IN THE 5TH AND 6TH MAMMARY GLAND REGION, Promoter: NONE USED): 20/20 (100%), 4/20 (20%), 80%, p<0.001
- tumour outcome (control, treated, inhibition, significance) (Carcinogen: 7,12-DIMETHYLBENZ[A]ANTHRACENE, 57-97-6, Dose [Inhibitor]: 0, 4 MG 2/WK FOR 20 WK BEGINNING 2 WK POST CARCINOGEN DOSE (STUDY DURATION: 22 WK), Route [Inhibitor]: DERMAL, Species: MOUSE, Strain/Sex: CF-1/FEMALE, Target Tissue: Type of Lesion: SKIN: PAPILLOMA, Dose [Carcinogen]: 25.6 UG ONCE, Promoter: 12-O-TETRADECANOYLPHORBOL-13-ACETATE, 16561-29-8): 97%, 97%, 0%, not significant
- tumour outcome (control, treated, inhibition, significance) (Carcinogen: 7,12-DIMETHYLBENZ[A]ANTHRACENE, 57-97-6, Dose [Inhibitor]: 0, 12 MG 2/WK FOR 20 WK BEGINNING 2 WK POST CARCINOGEN DOSE (STUDY DURATION: 22 WK), Route [Inhibitor]: DERMAL, Species: MOUSE, Strain/Sex: CF-1/FEMALE, Target Tissue: Type of Lesion: SKIN: PAPILLOMA, Dose [Carcinogen]: 25.6 UG ONCE, Promoter: 12-O-TETRADECANOYLPHORBOL-13-ACETATE, 16561-29-8): 97%, 91%, 6%, not significant
- tumour outcome (control, treated, inhibition, significance) (Carcinogen: BENZO[A]PYRENE, 50-32-8, Dose [Inhibitor]: 0, 2.5 MG/D IN DRINKING WATER FOR 8 WK BEGINNING 2 WK PRIOR TO CARCINOGEN TREATMENT (STUDY DURATION: 20 WK), Route [Inhibitor]: ORAL, Species: MOUSE, Strain/Sex: SWISS/FEMALE, Target Tissue: Type of Lesion: FORESTOMACH: TUMOR, Dose [Carcinogen]: 1 MG IN 0.1 ML PEANUT OIL 2/WK FOR 4 WK, Promoter: NONE USED): 20/20 (100%), 16/20 (80%), 20%, not significant
- tumour outcome (control, treated, inhibition, significance) (Carcinogen: METHYL(ACETOXYMETHYL)NITROSAMINE, 56856-83-8, Dose [Inhibitor]: 0, 1.7 MG/D IN DRINKING WATER FOR DURATION OF STUDY BEGINNING 2 WK PRIOR TO CARCINOGEN TREATMENT (STUDY DURATION: 13 MO), Route [Inhibitor]: ORAL, Species: HAMSTER, Strain/Sex: SYRIAN/FEMALE, Target Tissue: Type of Lesion: ORAL: CAVITY, Dose [Carcinogen]: 2 MG/KG BW APPLIED TO RIGHT CHEEK POUCH 2/MO FOR 6 MO, Promoter: NONE USED): 14/15 (93%), 4/15 (27%), 71%, p<0.001
- tumour outcome (control, treated, inhibition, significance) (Carcinogen: N-ETHYL-N-HYDROXYETHYLNITROSAMINE, 13147-25-6, Dose [Inhibitor]: 0, 0.8% IN DIET FOR 36 WK BEGINNING 1 WK POST CARCINOGEN TREATMENT (STUDY DURATION: 40 WK), Route [Inhibitor]: ORAL, Species: RAT, Strain/Sex: WISTAR/MALE, Target Tissue: Type of Lesion: KIDNEY: MICROADENOMA, Dose [Carcinogen]: 0.1% IN DRINKING WATER FOR 3 WK, Promoter: NONE USED): 11/17 (65%), 12/17 (71%), -9%, not significant
- tumour outcome (control, treated, inhibition, significance) (Carcinogen: N-ETHYL-N-HYDROXYETHYLNITROSAMINE, 13147-25-6, Dose [Inhibitor]: 0, 0.8% IN DIET FOR 36 WK BEGINNING 1 WK POST CARCINOGEN TREATMENT (STUDY DURATION: 40 WK), Route [Inhibitor]: ORAL, Species: RAT, Strain/Sex: WISTAR/MALE, Target Tissue: Type of Lesion: KIDNEY: RENAL CELL TUMOR, Dose [Carcinogen]: 0.1% IN DRINKING WATER FOR 3 WK, Promoter: NONE USED): 14/17 (82%), 11/17 (65%), 21%, not significant
- tumour outcome (control, treated, inhibition, significance) (Carcinogen: N-ETHYL-N-HYDROXYETHYLNITROSAMINE, 13147-25-6, Dose [Inhibitor]: 0, 0.8% IN DIET FOR 36 WK BEGINNING 1 WK POST CARCINOGEN TREATMENT (STUDY DURATION: 40 WK), Route [Inhibitor]: ORAL, Species: RAT, Strain/Sex: WISTAR/MALE, Target Tissue: Type of Lesion: LIVER: HEPATOCELLULAR ADENOMA, Dose [Carcinogen]: 0.1% IN DRINKING WATER FOR 3 WK, Promoter: NONE USED): 10/17 (59%), 11/17 (65%), -10%, not significant
- tumour outcome (control, treated, inhibition, significance) (Carcinogen: N-ETHYL-N-HYDROXYETHYLNITROSAMINE, 13147-25-6, Dose [Inhibitor]: 0, 0.8% IN DIET FOR 36 WK BEGINNING 1 WK POST CARCINOGEN TREATMENT (STUDY DURATION: 40 WK), Route [Inhibitor]: ORAL, Species: RAT, Strain/Sex: WISTAR/MALE, Target Tissue: Type of Lesion: LIVER: HEPATOCELLULAR CARCINOMA, Dose [Carcinogen]: 0.1% IN DRINKING WATER FOR 3 WK, Promoter: NONE USED): 7/17 (41%), 3/17 (18%), 56%, not significant
- tumour outcome (control, treated, inhibition, significance) (Carcinogen: N-NITROSOBIS(2-HYDROXYPROPYL)AMINE, 53609-64-6, Dose [Inhibitor]: 0, 1.5% IN DIET FOR 30 WK BEGINNING POST CARCINOGEN TREATMENT (STUDY DURATION: 35 WK), Route [Inhibitor]: ORAL, Species: HAMSTER, Strain/Sex: SYRIAN/MALE, Target Tissue: Type of Lesion: PANCREAS: ADENOCARCINOMA, Dose [Carcinogen]: 500 MG/KG 1/WK FOR 5 WK, Promoter: NONE USED): 8/17 (47%), 5/19 (26%), 45%, not significant
- tumour outcome (control, treated, inhibition, significance) (Carcinogen: NONE USED, Dose [Inhibitor]: 0, 2.5 MG/D IN DRINKING WATER FROM 8 MO OF AGE (STUDY DURATION: 15 MO), Route [Inhibitor]: ORAL, Species: MOUSE, Strain/Sex: C3H/FEMALE, Target Tissue: Type of Lesion: MAMMARY GLAND: TUMOR, Promoter: NONE USED): 12/20 (60%), 8/20 (40%), 33%, not calculated

SMILES: C#CCCCc1ccccc1
- tumour outcome (control, treated, inhibition, significance) (Carcinogen: 4-(METHYLNITROSAMINO)-1-(3-PYRIDYL)-1-BUTANONE, 64091-91-4, Dose [Inhibitor]: 0, 5 UMOL IN 0.1 ML CORN OIL ONCE 2 HR PRIOR TO CARCINOGEN DOSE (STUDY DURATION: 16 WK), Route [Inhibitor]: GAVAGE, Species: MOUSE, Strain/Sex: STRAIN-A/FEMALE, Target Tissue: Type of Lesion: LUNG: ADENOMA, Dose [Carcinogen]: 10 UMOL IN 0.1 ML SALINE ONCE, Promoter: NONE USED): 100%, 25%, 75%, p<0.01

SMILES: CC1=C(O)C(=O)C(C)O1 (stereo not drawn)
- tumour outcome (control, treated, inhibition, significance) (Carcinogen: BENZO[A]PYRENE, 50-32-8, Dose [Inhibitor]: 0, 25 PPM IN DIET FOR 17 WK BEGINNING 1 WK POST CARCINOGEN TREATMENT (STUDY DURATION: 21 WK), Route [Inhibitor]: ORAL, Species: MOUSE, Strain/Sex: ICR/FEMALE, Target Tissue: Type of Lesion: FORESTOMACH: TUMOR, Dose [Carcinogen]: 1.5 MG IN 0.2 ML CORN OIL 1/WK FOR 4 WK, Promoter: NONE USED): 90%, 74%, 18%, not significant
- tumour outcome (control, treated, inhibition, significance) (Carcinogen: BENZO[A]PYRENE, 50-32-8, Dose [Inhibitor]: 0, 50 PPM IN DIET FOR 17 WK BEGINNING 1 WK POST CARCINOGEN TREATMENT (STUDY DURATION: 21 WK), Route [Inhibitor]: ORAL, Species: MOUSE, Strain/Sex: ICR/FEMALE, Target Tissue: Type of Lesion: FORESTOMACH: TUMOR, Dose [Carcinogen]: 1.5 MG IN 0.2 ML CORN OIL 1/WK FOR 4 WK, Promoter: NONE USED): 90%, 72%, 20%, p<0.1
- tumour outcome (control, treated, inhibition, significance) (Carcinogen: BENZO[A]PYRENE, 50-32-8, Dose [Inhibitor]: 0, 75 PPM IN DIET FOR 17 WK BEGINNING 1 WK POST CARCINOGEN TREATMENT (STUDY DURATION: 21 WK), Route [Inhibitor]: ORAL, Species: MOUSE, Strain/Sex: ICR/FEMALE, Target Tissue: Type of Lesion: FORESTOMACH: TUMOR, Dose [Carcinogen]: 1.5 MG IN 0.2 ML CORN OIL 1/WK FOR 4 WK, Promoter: NONE USED): 90%, 62%, 31%, p<0.05
